# Values of other authors in patent publication US8603436B2, “Methods and compositions for targeted drug delivery” (priority 2000, dated 2013).
# Read-outs that look alike come from different tables or passages of the source. Square brackets hold non-standard residues; d marks the D form. Peptide text beside a SMILES is read from it. * marks the point of attachment. X1 = NCCCC[C@H](NC(=O)[C@H](CS)NC(=O)[C@H](CCCCN)NC(=O)[C@@H](N)CNC(=O)C*)C(N)=O; NMeF = CN[C@@H](Cc1ccccc1)C(=O)O; hCys = N[C@@H](CCS)C(=O)O
# How the values were obtained:
# tumor [1] = conditions: tumor models and individual patients
# glioblastoma cells = conditions: in vitro
# [2] = test system: ssr subtypes present in rat pancreas carcinoma membranes; conditions: free (unlabeled) peptide
# tumor [3] = conditions: in vivo
compound,measurement,setting,value
"N[C@@H](Cc1ccc(B(O)O)cc1)C(=O)O [BPA, p-boronophenylalanine]",tumor enrichment factor,tumor [1],≤ 3
same,concentration in lysosomes relative to cytosolic concentration,glioblastoma cells,100 fold lower
same,concentration in microsomes relative to cytosolic concentration,glioblastoma cells,125 fold lower
same,concentration in nuclei relative to cytosolic concentration,glioblastoma cells,80 fold lower
same,time to maximum uptake into whole glioblastoma cells,glioblastoma cells,1 h
same,cytosolic concentration,glioblastoma cells; at maximum uptake,250 ng per million of glioma cells
CC(C)[C@@H]1NC(=O)[C@H](CCCCN)NC(=O)[C@@H](Cc2c[nH]c3ccccc23)NC(=O)[C@H](Cc2ccc(O)cc2)NC(=O)[C@H](Cc2ccccc2)N(C)C(=O)[C@H](CCSCC(=O)NC[C@H](N)C(=O)N[C@@H](CCCCN)C(=O)N[C@@H](CS)C(=O)N[C@@H](CCCCN)C(N)=O)NC1=O [depreotide] (cyclo([hCys](X1)[NMeF]Y[dW]KV)),apparent affinity of the free peptide compared with octreotide,[2],one order of magnitude lower
beta-5-o-carboranyl-2′-deoxyuridine [D-CDU],tumor enrichment factor,tumor [3],~100
boronated protoporphyrin [BOPP],subcellular accumulation,lysosomes,"accumulate in lysosomes, but not in mitochondria or the nucleus"
